By melting point is commonly meant the temperature of the solid-liquid transition. The term IC50 denotes the concentration that gives 50% inhibition. Low values mean greater potency, high ones weaker potency.

Drawing on patent US9994515B2, “Aryl naphthyl methanone oxime(s) and process for preparation thereof” (Council of Scientific & Industrial Research, priority 2013, dated 2018), this text covers melting point and IC50 for 30 compounds.

For data set [1], the system named is NIH3T3. Description: MTT cytotoxicity assay in NIH3T3 fibroblasts. Type of data set: cell-based, mouse. The following applies: Table 1, MTT assay after 48 h treatment. As for the experimental part: To consider a molecule as a candidate compound in cancer drug therapy, the test compound must have specific cytotoxicity towards the cancer cells without affecting normal cell growth. Therefore, all active compounds were assessed for toxicity in non-cancer cell-lines: mouse fibroblast cell line (NIH3T3) and monkey kidney epithelial cells (Vero). […] Therefore, based on safety index ([…]), 5d [Centans; based on IUPAC name prefixed with Central Drug Research Institute's signature (Cent)] was selected as a lead compound.

In data set [2] the test system is K562. The data set can be described thus: MTT cytotoxicity assay in K562 cells. Type of data set: cell-based. The conditions noted are these: Table 1, MTT assay after 48 h treatment. On the technique in general: Tetrazolium assays rely on reduction of a dye to a coloured formazan, in cell work by metabolically active cells.
For data set [3], the system named is HL60. Description: MTT cytotoxicity assay in HL-60 cells. Type of data set: cell-based. The following applies: Table 1, MTT assay after 48 h treatment.

Where a name gives a salt, the structure may show the parent alone.

For the compound `CSc1ccc(/C(=N/OCCCN(C)C)c2cccc3ccccc23)cc1` (as salt: oxalate) [Compound 5m, (4-(methylthio)phenyl)(naphthalen-1-yl)methanone O-3-(dimethylamino)propyl oxime oxalate], the melting point was 110 °C.

For `CCN(CC)CCO/N=C(/c1ccc(SC)cc1)c1cccc2ccccc12` [Compound 5l, (4-(methylthio)phenyl)(naphthalen-1-yl)methanone O-2-(diethylamino)ethyl oxime], the IC50 in data set [1], in data set [2] and in data set [3] was above 50 µM throughout.

Compound `COc1ccc(/C(=N/OCCN(C)C)c2cccc3ccccc23)cc1` (as salt: oxalate) [Compound 6c, (4-methoxyphenyl)(naphthalen-1-yl)methanone O-2-(dimethylamino)ethyl oxime oxalate] came in with a melting point of 141 °C.

For the compound `CSc1ccc(/C(=N/OCCN2CCCC2)c2cccc3ccccc23)cc1` (as salt: oxalate) [Compound 5b, (4-(methylthio)phenyl)(naphthalen-1-yl)methanone O-2-(pyrrolidin-1-yl)ethyl oxime oxalate], the melting point amounted to 153 °C.

Consider `CCOC(=O)CO/N=C(/c1ccc(SC)cc1)c1cccc2ccccc12` [Compound 5p, Ethyl 2-((4-(methylthio)phenyl) (naphthalen-1-yl)methyleneaminooxy) acetate], for which the IC50 in data set [1] (Mus musculus, NIH3T3, 48 h) was above 50 µM; in data set [2] (Homo sapiens, K562, 48 h) it was above 50 µM; in data set [3] (Homo sapiens, HL-60, 48 h) it was 15 µM.

In turn, `CCN(CC)CCO/N=C(/c1ccc(OC)cc1)c1cccc2ccccc12` (as salt: oxalate) [Compound 6d, (4-methoxyphenyl)(naphthalen-1-yl)methanone O-2-(diethylamino)ethyl oxime oxalate] yielded a melting point of 137 °C.

In turn, `COc1ccc(/C(=N/OCCCN(C)C)c2cccc3ccccc23)cc1` (as salt: oxalate) [Compound 6i, (4-methoxyphenyl)(naphthalen-1-yl)methanone O-3-(dimethylamino)propyl oxime oxalate] yielded a melting point of 155 °C.

Consider `CCN(CCCCO/N=C(/c1ccc(SC)cc1)c1cccc2ccccc12)Cc1ccccc1` [Compound 8d, (4-(methylthio)phenyl)(naphthalen-1-yl) methanone O-4-(benzyl(ethyl)amino)butyl oxime], for which the IC50 in data set [1] (Mus musculus, NIH3T3, 48 h) was above 50 µM; in data set [2] (Homo sapiens, K562, 48 h), 16.3 µM; in data set [3] (Homo sapiens, HL-60, 48 h) it was above 50 µM.

Compound `CSc1ccc(/C(=N/OC(C)CN(C)C)c2cccc3ccccc23)cc1` (stereo not shown) (as salt: oxalate) [Compound 5g, (4-(methylthio)phenyl)(naphthalen-1-yl)methanone O-1-(dimethylamino)propan-2-yl oxime oxalate] yielded a melting point of 101 °C.

Turning to `CSc1ccc(/C(=N/OCCCN2CCC(C)CC2)c2cccc3ccccc23)cc1` (as salt: oxalate) [Compound 7c, (4-(methylthio)phenyl)(naphthalen-1-yl)methanone O-3-(4-methylpiperidin-1-yl)propyl oxime oxalate], the melting point was 145 °C.

As to `CSc1ccc(/C(=N/OC(C)CN(C)C)c2cccc3ccccc23)cc1` (stereo not shown) [Compound 5g, (4-(methylthio)phenyl)(naphthalen-1-yl)methanone O-1-(dimethylamino)propan-2-yl oxime oxalate], the concentration for half-maximal inhibition (IC50) was above 50 µM in data set [1] (Mus musculus, NIH3T3, 48 h); above 50 µM in data set [2] (Homo sapiens, K562, 48 h); above 50 µM in data set [3] (Homo sapiens, HL-60, 48 h).

Take `COc1ccc(/C(=N/OCCN2CCCCCC2)c2cccc3ccccc23)cc1` [Compound 6g, (4-methoxyphenyl)(naphthalen-1-yl)methanone O-2-(azepan-1-yl)ethyl oxime oxalate]: the IC50 in data set [1] (Mus musculus, NIH3T3, 48 h) is 16 µM; in data set [2] (Homo sapiens, K562, 48 h), 6.66 µM; in data set [3] (Homo sapiens, HL-60, 48 h), above 50 µM.

The compound `CSc1ccc(/C(=N/OCCN2CCCCC2)c2cccc3ccccc23)cc1` (as salt: oxalate) [Compound 5a, (4-(methylthio)phenyl)(naphthalen-1-yl)methanone O-2-(piperidin-1-yl)ethyl oxime oxalate] showed a melting point of 155 °C.

`COc1ccc(/C(=N/OCCN(C(C)C)C(C)C)c2cccc3ccccc23)cc1` (as salt: oxalate) [Compound 6e, (4-methoxyphenyl)(naphthalen-1-yl)methanone O-2-(diisopropylamino)ethyl oxime oxalate] returned a melting point of 130 °C.

Take `COc1ccc(/C(=N/OCCN2CCCCCC2)c2cccc3ccccc23)cc1` (as salt: oxalate) [Compound 6g, (4-methoxyphenyl)(naphthalen-1-yl)methanone O-2-(azepan-1-yl)ethyl oxime oxalate]: the melting point was determined as 122 °C.

As for `CCN(CC)CCO/N=C(/c1ccc(SC)cc1)c1cccc2ccccc12` [Compound 5i, (4-(methylthio)phenyl)(naphthalen-1-yl)methanone O-2-(diethylamino)ethyl oxime citrate], the IC50 in data set [1] (citrate) was 40 µM; in data set [2] (citrate), above 30 µM; in data set [3] (citrate), above 50 µM.

Regarding `CCCCN(C)CCCO/N=C(/c1ccc(SC)cc1)c1cccc2ccccc12` [Compound 7d, (4-(methylthio)phenyl)(naphthalen-1-yl)methanone O-3-(butyl(methyl)amino)propyl oxime], the IC50 in data set [1] (Mus musculus, NIH3T3, 48 h) was above 50 µM; in data set [2] (Homo sapiens, K562, 48 h) it was above 50 µM; in data set [3] (Homo sapiens, HL-60, 48 h), 13 µM.

As for `COc1ccc(/C(=N/OCCN2CCCCC2)c2cccc3ccccc23)cc1` (as salt: oxalate) [Compound 6a, (4-methoxyphenyl)(naphthalen-1-yl)methanone O-2-(piperidin-1-yl)ethyl oxime oxalate], the melting point amounted to 171 °C.

As to `COc1ccc(/C(=N/OC(C)CN(C)C)c2cccc3ccccc23)cc1` (stereo not shown) [Compound 6f, (4-methoxyphenyl)(naphthalen-1-yl)methanone O-1-(dimethylamino)propan-2-yl oxime oxalate], the IC50 is above 50 µM in data set [1] (Mus musculus, NIH3T3, 48 h); above 50 µM in data set [2] (Homo sapiens, K562, 48 h); above 50 µM in data set [3] (Homo sapiens, HL-60, 48 h).

With `COc1ccc(/C(=N/OCCN2CCCC2)c2cccc3ccccc23)cc1` (as salt: oxalate) [Compound 6b, (4-methoxyphenyl)(naphthalen-1-yl)methanone O-2-(pyrrolidin-1-yl)ethyl oxime oxalate], the melting point worked out at 158 °C.

As to `CSc1ccc(/C(=N/OCCN2CCCCCC2)c2cccc3ccccc23)cc1` [Compound 5h, (4-(methylthio)phenyl)(naphthalen-1-yl)methanone O-2-(azepan-1-yl)ethyl oxime oxalate], the IC50 in data set [1] (Mus musculus, NIH3T3, 48 h) was above 50 µM; in data set [2] (Homo sapiens, K562, 48 h), above 50 µM; in data set [3] (Homo sapiens, HL-60, 48 h), above 50 µM.

As for `CSc1ccc(/C(=N/OCCN(C(C)C)C(C)C)c2cccc3ccccc23)cc1` [Compound 5e, (4-(methylthio)phenyl)(naphthalen-1-yl)methanone O-2-(diisopropylamino)ethyl oxime], the IC50 in data set [1] (Mus musculus, NIH3T3, 48 h) is 16 µM; in data set [2] (Homo sapiens, K562, 48 h) it was 7 µM; in data set [3] (Homo sapiens, HL-60, 48 h) it was 14 µM.

Consider `CCN(CC)C(=O)CO/N=C(/c1ccc(SC)cc1)c1cccc2ccccc12` [Compound 5q, N,N-diethyl-2-((4-(methylthio)phenyl) (naphthalen-1-yl)methyleneaminooxy)acetamide], for which the IC50 was above 50 µM in data set [1] (Mus musculus, NIH3T3, 48 h); above 50 µM in data set [2] (Homo sapiens, K562, 48 h); above 50 µM in data set [3] (Homo sapiens, HL-60, 48 h).

For the compound `CSc1ccc(/C(=N/OCCCCNCCc2ccccc2)c2cccc3ccccc23)cc1` [Compound 8c, (4-(methylthio)phenyl)(naphthalen-1-yl)methanone O-4-(phenethylamino)butyl oxime], the 50% inhibitory concentration (IC50) is above 50 µM in data set [1] (Mus musculus, NIH3T3, 48 h); above 30 µM in data set [2] (Homo sapiens, K562, 48 h); above 50 µM in data set [3] (Homo sapiens, HL-60, 48 h).

For the compound `COc1ccc(/C(=N/OCCN2CCOCC2)c2cccc3ccccc23)cc1` [Compound 6h, (4-methoxyphenyl)(naphthalen-1-yl)methanone O-2-morpholinoethyl oxime], the IC50 in data set [1] (Mus musculus, NIH3T3, 48 h) is 26 µM; in data set [2] (Homo sapiens, K562, 48 h), 19 µM; in data set [3] (Homo sapiens, HL-60, 48 h) it was above 50 µM.

The compound `CSc1ccc(/C(=N/OCCN(C)C)c2cccc3ccccc23)cc1` (as salt: oxalate) [Compound 5c, (4-(methylthio)phenyl)(naphthalen-1-yl)methanone O-2-(dimethylamino)ethyl oxime oxalate] showed a melting point of 105 °C.

`COc1ccc(/C(=N/OC(C)CN(C)C)c2cccc3ccccc23)cc1` (stereo not shown) (as salt: oxalate) [Compound 6f, (4-methoxyphenyl)(naphthalen-1-yl)methanone O-1-(dimethylamino)propan-2-yl oxime oxalate] yielded a melting point of 105 °C.

`CSc1ccc(/C(=N/OCCN2CCCCCC2)c2cccc3ccccc23)cc1` (as salt: oxalate) [Compound 5h, (4-(methylthio)phenyl)(naphthalen-1-yl)methanone O-2-(azepan-1-yl)ethyl oxime oxalate] registered a melting point of 145 °C.

In the case of `CCN(CC)CCO/N=C(/c1ccc(SC)cc1)c1cccc2ccccc12` [Compound 5k, (4-(methylthio)phenyl)(naphthalen-1-yl)methanone O-2-(diethylamino)ethyl oxime tartrate], the IC50 in data set [1] (tartrate), in data set [2] (tartrate) and in data set [3] (tartrate) was above 50 µM throughout.

With `CSc1ccc(/C(=N/OCCCN2CCCCC2)c2cccc3ccccc23)cc1` (as salt: oxalate) [Compound 7a, (4-(methylthio)phenyl)(naphthalen-1-yl)methanone O-3-(piperidin-1-yl)propyl oxime oxalate], the melting point amounted to 137 °C.
